In PubChem BioAssay AID248 (DTP/NCI, 2004):
Toxic doses and inconclusive results are not listed. No stated cut-off is given here; in the data, active means T/C of 150% or more; inactive means T/C below 125%.

Test system: L1210 leukemia ip in BDF1 mice, survival T/C
Assay: NCI In Vivo Anticancer Drug Screen. Data for tumor model L1210 Leukemia (intraperitoneal) in B6D2F1 (BDF1) mice
Conditions: endpoint: mean survival time, higher = longer survival
Outline: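 Tumor cells were implanted, animals were treated, and survival was followed. The result divides the treated measurement by the vehicle-control measurement.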

[1] = dose: 100.0 mg/kg/injection, schedule: Q01DX009 (ip), vehicle: saline with Tween-80
[2] = dose: 100.0 mg/kg/injection, schedule: Q04DX003 (ip), vehicle: saline with Tween-80
[3] = dose: 200.0 mg/kg/injection, schedule: Q01DX009 (ip), vehicle: saline with Tween-80
[4] = dose: 200.0 mg/kg/injection, schedule: Q04DX003 (ip), vehicle: saline with Tween-80
[5] = dose: 400.0 mg/kg/injection, schedule: Q01DX009 (ip), vehicle: saline with Tween-80
[6] = dose: 400.0 mg/kg/injection, schedule: Q04DX003 (ip), vehicle: saline with Tween-80
[7] = dose: 100.0 mg/kg/injection, schedule: Q01DX001 (ip), vehicle: carboxymethylcellulose (CMC)
[8] = dose: 200.0 mg/kg/injection, schedule: Q01DX001 (ip), vehicle: carboxymethylcellulose (CMC)
[9] = dose: 400.0 mg/kg/injection, schedule: Q01DX001 (ip), vehicle: carboxymethylcellulose (CMC)

Measured: T/C

CCOC(=O)c1ccc(NC(=S)NC(=O)/C=C/c2ccccc2)cc1
inactive: [1] 92 % of control | [2] 91 % of control | [3] 100 % of control | [4] 94 % of control | [5] 97 % of control | [6] 101 % of control

Cc1ccc(CC(=O)N2CCOCC2)cc1
inactive: [7] 106 % of control | [8] 97 % of control | [9] 92 % of control

CCCCCCCC/C=C\CCCCCCCC(=O)OCC1CCCO1 (stereo not given)
inactive: [1] 95 % of control | [3] 90 % of control | [5] 92 % of control

CCCOC(=O)N(CC)C(=NCC)c1ccc(NC(=O)c2ccc(C(=O)Nc3ccc(C(=NCC)N(CC)C(=O)OCCC)cc3)cc2)cc1
inactive: dose: 2.5 mg/kg/injection, schedule: Q01DX015 (ip), vehicle: methylcellulose (MC) 95 % of control | dose: 5.0 mg/kg/injection, schedule: Q01DX015 (ip), vehicle: methylcellulose (MC) 101 % of control | dose: 10.0 mg/kg/injection, schedule: Q01DX015 (ip), vehicle: methylcellulose (MC) 101 % of control | dose: 20.0 mg/kg/injection, schedule: Q01DX015 (ip), vehicle: methylcellulose (MC) 109 % of control | dose: 37.5 mg/kg/injection, schedule: Q01DX015 (ip), vehicle: methylcellulose (MC) 112 % of control | dose: 75.0 mg/kg/injection, schedule: Q01DX015 (ip), vehicle: methylcellulose (MC) 90 % of control | dose: 150.0 mg/kg/injection, schedule: Q01DX015 (ip), vehicle: methylcellulose (MC) 92 % of control | dose: 300.0 mg/kg/injection, schedule: Q01DX015 (ip), vehicle: methylcellulose (MC) 93 % of control

O=C1CCC=Cc2c(O)ccc(O)c21
inactive: [7] 91 % of control | [8] 93 % of control | [9] 96 % of control

CCOC(=O)C1CNc2ccccc2N1 (stereo not given)
inactive: dose: 25.0 mg/kg/injection, schedule: Q01DX009 (ip), vehicle: saline with Tween-80 93 % of control | dose: 50.0 mg/kg/injection, schedule: Q01DX009 (ip), vehicle: saline with Tween-80 110 % of control | [2] 105 % of control

Cc1c[nH]c2nccnc12
inactive: dose: 100.0 mg/kg/injection, schedule: Q01DX009 (ip), vehicle: water 102 % of control | dose: 100.0 mg/kg/injection, schedule: Q04DX003 (ip), vehicle: water 108 % of control | dose: 200.0 mg/kg/injection, schedule: Q01DX009 (ip), vehicle: water 96 % of control | dose: 200.0 mg/kg/injection, schedule: Q04DX003 (ip), vehicle: water 98 % of control | dose: 400.0 mg/kg/injection, schedule: Q01DX009 (ip), vehicle: water 105 % of control | dose: 400.0 mg/kg/injection, schedule: Q04DX003 (ip), vehicle: water 101 % of control

CN1CCN(CCN2CCN(CCCN3c4ccccc4Sc4ccc(Cl)cc43)CC2)C1=O
inactive: [7] 104 % of control

O=c1[nH]c(=O)c2[nH]c(Br)c(Br)c2[nH]1
inactive: dose: 100.0 mg/kg/injection, schedule: Q01DX001 (ip), vehicle: saline 93 % of control | dose: 200.0 mg/kg/injection, schedule: Q01DX001 (ip), vehicle: saline 96 % of control | dose: 400.0 mg/kg/injection, schedule: Q01DX001 (ip), vehicle: saline 93 % of control

O=c1ccc2c(ccc3ncccc32)o1
inactive: dose: 50.0 mg/kg/injection, schedule: Q01DX009 (ip), vehicle: carboxymethylcellulose (CMC) 87 % of control | dose: 50.0 mg/kg/injection, schedule: Q04DX003 (ip), vehicle: carboxymethylcellulose (CMC) 117 % of control | dose: 100.0 mg/kg/injection, schedule: Q01DX009 (ip), vehicle: carboxymethylcellulose (CMC) 98 % of control | dose: 100.0 mg/kg/injection, schedule: Q04DX003 (ip), vehicle: carboxymethylcellulose (CMC) 111 % of control | dose: 200.0 mg/kg/injection, schedule: Q04DX003 (ip), vehicle: carboxymethylcellulose (CMC) 93 % of control

O=C1Cc2cccc3cccc1c23
inactive: [2] 102 % of control | [4] 106 % of control | [6] 104 % of control

Nc1n[nH]c([N+](=O)[O-])n1
inactive: dose: 100.0 mg/kg/injection, schedule: Q04DX003 (ip), vehicle: saline sonified 100 % of control | dose: 200.0 mg/kg/injection, schedule: Q04DX003 (ip), vehicle: saline sonified 103 % of control | dose: 400.0 mg/kg/injection, schedule: Q04DX003 (ip), vehicle: saline sonified 109 % of control

COc1cc2ccncc2cc1Oc1ccc(C)cc1
inactive: dose: 50.0 mg/kg/injection, schedule: Q01DX001 (ip), vehicle: other 97 % of control | dose: 100.0 mg/kg/injection, schedule: Q01DX001 (ip), vehicle: other 104 % of control | dose: 200.0 mg/kg/injection, schedule: Q01DX001 (ip), vehicle: other 97 % of control

O=C(CCCN1CCC(O)(c2ccc(Cl)cc2)CC1)c1ccc(F)cc1
inactive: dose: 1.25 mg/kg/injection, schedule: Q01DX009 (ip), vehicle: saline 90 % of control | dose: 2.5 mg/kg/injection, schedule: Q01DX009 (ip), vehicle: Klucel (hydroxypropylcellulose) (HPC) 92 % of control | dose: 2.5 mg/kg/injection, schedule: Q01DX009 (ip), vehicle: saline 100 % of control | dose: 2.5 mg/kg/injection, schedule: Q04DX003 (ip), vehicle: saline 114 % of control | dose: 5.0 mg/kg/injection, schedule: Q01DX009 (ip), vehicle: Klucel (hydroxypropylcellulose) (HPC) 95 % of control | dose: 5.0 mg/kg/injection, schedule: Q01DX009 (ip), vehicle: saline 113 % of control | dose: 5.0 mg/kg/injection, schedule: Q04DX003 (ip), vehicle: saline 101 % of control | dose: 10.0 mg/kg/injection, schedule: Q01DX009 (ip), vehicle: Klucel (hydroxypropylcellulose) (HPC) 100 % of control | dose: 10.0 mg/kg/injection, schedule: Q01DX009 (ip), vehicle: saline 121 % of control | dose: 10.0 mg/kg/injection, schedule: Q04DX003 (ip), vehicle: saline 124 % of control | dose: 20.0 mg/kg/injection, schedule: Q01DX009 (ip), vehicle: Klucel (hydroxypropylcellulose) (HPC) 111 % of control | dose: 20.0 mg/kg/injection, schedule: Q01DX009 (ip), vehicle: saline 90 % of control | dose: 20.0 mg/kg/injection, schedule: Q04DX003 (ip), vehicle: saline 101 % of control | dose: 40.0 mg/kg/injection, schedule: Q01DX009 (ip), vehicle: saline 90 % of control | dose: 40.0 mg/kg/injection, schedule: Q04DX003 (ip), vehicle: saline 101 % of control | dose: 80.0 mg/kg/injection, schedule: Q04DX003 (ip), vehicle: Klucel (hydroxypropylcellulose) (HPC) 110 % of control | dose: 160.0 mg/kg/injection, schedule: Q04DX003 (ip), vehicle: Klucel (hydroxypropylcellulose) (HPC) 106 % of control

O=S1(=O)CCCCC1=C(c1ccccc1)c1ccccc1
inactive: dose: 100.0 mg/kg/injection, schedule: Q04DX002 (ip), vehicle: saline with Tween-80 89 % of control | dose: 200.0 mg/kg/injection, schedule: Q04DX002 (ip), vehicle: saline with Tween-80 89 % of control

O=C(O)CCSCCC(=O)O
inactive: dose: 75.0 mg/kg/injection, schedule: Q01DX009 (ip), vehicle: Klucel (hydroxypropylcellulose) (HPC) 92 % of control | dose: 75.0 mg/kg/injection, schedule: Q04DX003 (ip), vehicle: saline 100 % of control | dose: 150.0 mg/kg/injection, schedule: Q01DX009 (ip), vehicle: Klucel (hydroxypropylcellulose) (HPC) 92 % of control | dose: 150.0 mg/kg/injection, schedule: Q04DX003 (ip), vehicle: saline 100 % of control | dose: 300.0 mg/kg/injection, schedule: Q01DX009 (ip), vehicle: Klucel (hydroxypropylcellulose) (HPC) 94 % of control | dose: 300.0 mg/kg/injection, schedule: Q04DX003 (ip), vehicle: saline 102 % of control
